{"source": "patent US11306036B2", "about": "“Composition containing a urease inhibitor” (RHODIA OPERATIONS, priority 2016, dated 2022)", "test": "Stability test: remaining NBPT content on treated granulated urea after storage (HPLC)", "assay_type": "physicochemical", "settings": "storage at 40° C., 50% humidity, up to 90 days", "procedure": "The sample was prepared by mixing 6.00 g of TMBPA and 8.11 g of NBPT (98% purity) in 15.89 g of Augeo® SL 191 at a temperature of 25° C. The concentration of TMBPA was 20% and the concentration of NBPT was 26.5%. Then, the solution prepared was sprayed onto 50 g of granulated urea at a dosage of 0.3% of urea weight.\nFor stability tests, the treated granulated urea was kept at 40° C. and an atmospheric humidity of 50% for 30 days, 60 days and 90 days, respectively. The remaining NBPT content (expressed as percentages based on initial NBPT content) was measured by using HPLC analysis according to the standard procedure.", "data": [{"compound": "CCCCNP(N)(N)=S", "note": "[NBPT, N-(n-butyl)thiophosphoric acid triamide]", "values": [{"measurement": "stability of NBPT after application to the urea fertilizer (in words)", "value": "poor stability"}]}]}
